Assay results from patent US10730849B2, “Benzo[b]thiophene compounds as STING agonists” (MERCK SHARP & DOHME CORP., priority 2016, dated 2020).
pEC50: −log10 of the molar value.

Tests used:
full-length HAQ STING = full-length HAQ STING (Homo sapiens (Human), UniProt Q86WV6, G230A/H232R/R293Q/R71H); experiment: 3H-cGAMP filtration binding assay (HAQ STING); conditions: competition with tritiated cGAMP, HAQ STING membrane
Excerpt: The ability of compounds to bind STING is quantified by the ability to compete with tritiated cGAMP ligand for human STING receptor membrane using a radioactive filter-binding assay. The binding assay employs STING receptor obtained from Hi-Five cell membranes overexpressing full-length HAQ STING prepared in-house and tritiated cGAMP ligand also purified in-house.
(§1) The ability of compounds to bind STING is quantified by their ability to compete with tritiated cGAMP ligand for human STING receptor membrane using a radioactive filter-binding assay. The binding assay employs STING receptor obtained from Trichoplusia ni cell membranes (T. ni; Expression Systems, cat #94-002F, www.exressionsystems.com) overexpressing full-length HAQ STING and tritiated cGAMP ligand.
The basic HAQ STING filtration assay protocol is as follows:
Compound and membrane then preincubated for 60 min at RT to allow compound binding to equilibrate. Following equilibration, 8 nM of [^3H]c-GAMP ligand was prepared by diluting into assay buffer, and 50 uL of this working stock was then manually added to each well of the assay plate. […] The filter plates were then dried at 55° C. for 30 min using a pressurized oven before 30 uL of ULTIMA GOLD F scintillate was added to each well. Tritium levels for each reaction well were then measured using a PerkinElmer TopCount plate reader.
(§2) After normalization to controls, the percent activity for each compound concentration was calculated by measuring the amount of remaining radioactivity. The plot of percent activity versus the log of compound concentration was fit with a 4-parameter dose response equation to calculate EC50 values.

full-length WT STING = full-length WT STING (Homo sapiens (Human), UniProt Q86WV6, H232R); experiment: 3H-cGAMP filtration binding assay (WT STING); conditions: for pEC50: competition with tritiated cGAMP, WT STING membrane; for inhibition at 20 µM: WT STING, compound at 20 uM
Excerpt: as §1, with “www.expressionsystems.com)” for “www.exressionsystems.com)”, “WT” for “HAQ”
The basic WT STING filtration assay protocol is as follows:
The filter plates were then dried at 55° C. for 30 min using a pressurized VWR oven before 30 uL of ULTIMA GOLD F scintillate was added to each well. Tritium levels for each reaction well were then measured using a PerkinElmer TopCount plate reader.
as §2

THP1 cells = experiment: IFN-β secretion in THP1 cell culture (5 h); format: cell-based, human; conditions: relative to 30 uM cGAMP
Method: The ability of compounds to stimulate the secretion of interferon-beta from THP1 cells was measured using a human IFN-3 AlphaLISA kit (Perkin Elmer, Cat. No. AL265F). The basic protocol is as follows:
The cell viability and count was ascertained using a Beckman Coulter V-Cell XR cell counter. The cells suspension was centrifuged at 200×g for 5 min at RT. Cells were resuspended to a density of 0.8×10^6/mL in 37° C. assay medium. Subsequent liquid transfers were performed using either a Matrix electronic multichannel pipette or an Agilent Bravo Automated Liquid Handling Platform.
The assay was started by dispensing 40 μL of the previously prepared cell suspension into the wells of the plate containing compounds. After 5 h incubation at 37° C., 5% CO2 in a humidified atmosphere, the plate of cells and compounds was centrifuged at 200×g for 5 min at RT. […] To these supernatant-containing wells was added 10 μL of 5× Anti-Analyte Acceptor beads ([…] of AlphaLISA HiBlock Buffer) and incubated for 30 min at RT while shaking on an orbital plate shaker. To each well was added 10 μL of 5× Biotinylated Antibody Anti-analyte (5 nM in AlphaLISA HiBlock Buffer) and incubated on an orbital plate shaker for 60 min at RT or overnight at 4° C. To each well was added 25 μL of 2× SA-Donor beads ([…] in AlphaLISA HiBlock Buffer) and incubated for 30-45 min at RT in the dark while shaking on an orbital plate shaker. The plate was then read on a Perkin Elmer Envision (λex=680 nm, […]). The percent effect of the AlphaLISA signal at each compound concentration was calculated based on 30 uM cGAMP positive controls and 0.3% DMSO negative controls. The plot of percent effect versus the log of compound concentration was fit with a 4-parameter concentration response equation to calculate EC50 values.
Compounds of the disclosure were evaluated for IFN-3 secretion in THP1 cell culture as described above.

Sequence of full-length WT STING (Q86WV6 other isoform, or with tags, fused parts or gaps H232R (already in the parent)): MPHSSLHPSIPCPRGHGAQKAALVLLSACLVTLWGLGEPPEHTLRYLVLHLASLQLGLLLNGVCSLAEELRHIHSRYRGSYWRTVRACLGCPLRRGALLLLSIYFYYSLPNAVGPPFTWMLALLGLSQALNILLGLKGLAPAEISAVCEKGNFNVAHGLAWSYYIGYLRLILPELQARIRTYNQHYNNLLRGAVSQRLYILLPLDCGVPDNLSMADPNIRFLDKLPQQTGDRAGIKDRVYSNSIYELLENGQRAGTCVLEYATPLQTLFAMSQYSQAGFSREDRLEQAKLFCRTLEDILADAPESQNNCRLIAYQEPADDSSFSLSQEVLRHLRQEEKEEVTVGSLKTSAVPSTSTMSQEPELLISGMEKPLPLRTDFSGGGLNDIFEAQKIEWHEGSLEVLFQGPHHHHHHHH
Sequence of full-length HAQ STING (Q86WV6 other isoform, or with tags, fused parts or gaps, stated change not applied): as the sequence (Q86WV6 other isoform, or with tags, fused parts or gaps H232R (already in the parent)) above, with R71H, G230A, R293Q counted along it

Row | Compound | pEC50 (full-length HAQ STING) | pEC50 (full-length WT STING) | % Effect at 30 μM relative to 2’3’-cGAMP (THP1 cells) | inhibition at 20 µM (full-length WT STING)
1 | COCC(CC(=O)c1cc2cc(OC)c(OC)cc2s1)C(=O)O (stereo not drawn) [Example 17, 4-(5,6-Dimethoxybenzo[b]thiophen-2-yl)-2-(methoxymethyl)-4-oxobutanoic acid] | 5.23 | 4.83 | 21% | –
2 | C=Cc1cc2cc(C(=O)CCC(=O)O)sc2cc1OC [Example 18, 4-(6-Methoxy-5-vinylbenzo[b]thiophen-2-yl)-4-oxobutanoic acid] | 4.90 | – | 273% | 21%
3 | COc1cc2sc(C(=O)CCC(=O)O)cc2cc1Br [Example 19, 4-(5-Bromo-6-methoxybenzo[b]thiophene-2-yl)-4-oxobutanoic acid] | 5.01 | – | 153% | 30%
4 | C[C@@H](CC(=O)c1cc2cc(Cl)c(Cl)cc2s1)C(=O)O [Example 20] | 4.97 | – | 47% | 33%
5 | CCc1cc2sc(C(=O)C[C@H](C)C(=O)O)cc2cc1OC [Example 21, (S)-4-(6-Ethyl-5-methoxybenzo[b]thiophen-2-yl)-2-methyl-4-oxobutanoic acid] | 5.20 | 4.84 | 162% | –
6 | COc1cc2cc(C(=O)C[C@H](C)C(=O)O)sc2cc1C [Example 22, (S)-4-(5-methoxy-6-methylbenzo[b]thiophen-2-yl)-2-methyl-4-oxobutanoic acid] | 5.06 | 4.77 | 43% | –
7 | COc1cc2cc(C(=O)CCC(=O)O)sc2cc1Cl [Example 23, 4-(6-Chloro-5-methoxybenzo[b]thiophen-2-yl)-4-oxobutanoic acid] | 5.22 | – | 191% | 37%
8 | COc1cc2sc(C(=O)C[C@H](C)C(=O)O)cc2cc1Br [Example 24, (S)-4-(5-Bromo-6-methoxybenzo[b]thiophen-2-yl)-2-methyl-4-oxobutanoic acid] | 5.58 | 5.07 | 214% | –
9 | COc1cc2sc(C(=O)CCC(=O)O)c(Cl)c2cc1OC [Example 27, 4-(3-chloro-5,6-dimethoxybenzo[b]thiophen-2-yl)-4-oxobutanoic acid] | 4.88 | – | 14% | 19%
10 | COc1cc2sc(C(=O)C[C@H](C)C(=O)O)cc2cc1Cl [Example 28, (S)-4-(5-chloro-6-methoxybenzo[b]thiophen-2-yl)-2-methyl-4-oxobutanoic acid] | 5.71 | 5.03 | 86% | –
11 | Cc1cc2cc(C(=O)C[C@H](C)C(=O)O)sc2cc1Br [Example 29, (S)-4-(6-bromo-5-methylbenzo[b]thiophen-2-yl)-2-methyl-4-oxobutanoic acid] | 4.86 | – | 9% | 16%
12 | COc1cc2sc(C(=O)C[C@H](C)C(=O)O)cc2cc1F [Example 30, (S)-4-(5-fluoro-6-methoxybenzo[b]thiophen-2-yl)-2-methyl-4-oxobutanoic acid] | 5.30 | 4.73 | 15% | –
13 | C[C@@H](CC(=O)c1cc2cc(Cl)c(Br)cc2s1)C(=O)O [Example 32, (S)-4-(6-bromo-5-chlorobenzo[b]thiophen-2-yl)-2-methyl-4-oxobutanoic acid] | 5.44 | 4.77 | 24% | –
14 | CCOc1cc2sc(C(=O)C[C@H](C)C(=O)O)cc2cc1Cl [Example 33, (S)-4-(5-chloro-6-ethoxybenzo[b]thiophen-2-yl)-2-methyl-4-oxobutanoic acid] | 5.19 | – | 25% | 30%
15 | Cc1cc2sc(C(=O)C[C@H](C)C(=O)O)cc2cc1Br [Example 34, (S)-4-(5-bromo-6-methylbenzo[b]thiophen-2-yl)-2-methyl-4-oxobutanoic acid] | 4.98 | – | 34% | 18%
16 | COc1cc2cc(C(=O)CC(C)C(=O)O)sc2cc1OC (stereo not drawn) [Example 35, 4-(5,6-dimethoxybenzo[b]thiophen-2-yl)-2-methyl-4-oxobutanoic acid] | 5.26 | 5.12 | 57% | –
17 | C#Cc1cc2cc(C(=O)CCC(=O)O)sc2cc1OC [Example 36, 4-(5-Ethynyl-6-methoxybenzo[b]thiophen-2-yl)-4-oxobutanoic acid] | 4.84 | – | 11% | 9%
18 | C=Cc1cc2cc(C(=O)C[C@H](C)C(=O)O)sc2cc1OC [Example 41, (S)-4-(6-methoxy-5-vinylbenzo[b]thiophen-2-yl)-2-methyl-4-oxobutanoic acid] | 5.24 | 4.83 | 312% | –
19 | COc1cc2cc(C(=O)C[C@H](C)C(=O)O)sc2cc1O [Example 43, (S)-4-(6-hydroxy-5-methoxybenzo[b]thiophen-2-yl)-2-methyl-4-oxobutanoic acid] | 5.92 | 5.39 | 56% | –
20 | COc1cc2cc(C(=O)C[C@H](C)C(=O)O)sc2cc1CCF [Example 46, (2S)-4-[6-(2-fluoroethyl)-5-methoxy-1-benzothiophen-2-yl]-2-methyl-4-oxobutanoic acid] | 5.13 | – | 205% | 24%
21 | CCOC(=O)C(C)(O)CC(=O)c1cc2cc(OC)c(OC)cc2s1 (stereo not drawn) [Example 48, Ethyl 4-(5,6-dimethoxybenzo[b]thiophen-2-yl)-2-hydroxy-2-methyl-4-oxobutanoate] | 4.72 | – | 71% | 23%
22 | CCC(CC(=O)c1cc2c(F)c(OC)c(OC)cc2s1)C(=O)O (stereo not drawn) [Example 50, 2-ethyl-4-(4-fluoro-5,6-dimethoxybenzo[b]thiophen-2-yl)-4-oxobutanoic acid] | 6.05 | 5.67 | 115% | –
23 | COc1cc2sc(C(=O)[C@H]3C[C@H]3C(=O)O)cc2c(F)c1OC [Example 51, (1R,2S)-2-(4-fluoro-5,6-dimethoxybenzo[b]thiophene-2-carbonyl)cyclopropane-1-carboxylic acid] | 4.75 | – | 31% | 3%
24 | COc1cc2sc(C(=O)[C@@H]3C[C@@H]3C(=O)O)cc2c(F)c1OC [Example 52, (1S,2R)-2-(4-fluoro-5,6-dimethoxybenzo[b]thiophene-2-carbonyl)cyclopropane-1-carboxylic acid] | 6.22 | – | 142% | 101%
25 | COc1cc2cc(C(=O)CCC(=O)O)sc2cc1OC(F)F [Example 53, 4-(6-(difluoromethoxy)-5-methoxybenzo[b]thiophen-2-yl)-4-oxobutanoic acid] | 4.86 | – | 182% | 7%
